Results published in publication PMC6792352, “Limited Chemical Structural Diversity Found to Modulate Thyroid Hormone Receptor in the Tox21 Chemical Library” (Environmental Health Perspectives, 2019).
Where a name gives a salt, the structure may show the parent alone.

Assay: in vitro
Conditions: rat, gh3-tre-luc cells

With C=CCCCCCCCCC(=O)O [10-Undecenoic acid] the CC50 at 24 h (AC50 (uM) modified / 1000) was over 90 µM.
OCCCCCCCCCCCCBr [12-Bromo-1-dodecanol] showed a CC50 at 24 h (AC50 (uM) modified / 1000) of over 90 µM.
With O=C(O)CCCCCCCCCCCBr [12-Bromododecanoic acid] the CC50 at 24 h (AC50 (uM) modified / 1000) was over 90 µM.
Molecule CCCCCCC(O)CCCCCCCCCCC(=O)O (centres unmarked) [12-Hydroxyoctadecanoic acid] has a CC50 at 24 h (AC50 (uM) modified / 1000) of over 90 µM.
With O=C1CCCCCCCCCCOCCCCO1 [12-Oxahexadecanolide] the CC50 at 24 h (AC50 (uM) modified / 1000) was over 90 µM.
Molecule CC1=C(/C=C/C(C)=C/C=C/C(C)=C\C=O)C(C)(C)CCC1 [13-cis-Retinal] has a CC50 at 24 h (AC50 (uM) modified / 1000) of 45.2 µM.
C[C@]12CCC(=O)C=C1CC[C@@H]1[C@@H]2CC[C@@]2(C)[C@H]1CC[C@]2(C)O [17-Methyltestosterone] gave a CC50 at 24 h (AC50 (uM) modified / 1000, Tox21_110001=Tox21_113161, viability, 1 nM T3 present, 24 h) of over 50 µM and a CC50 at 24 h (AC50 (uM) modified / 1000, Tox21_110001=Tox21_400058, viability, 1 nM T3 present, 24 h) of over 90 µM.
Molecule C[C@]12CC[C@@H]3c4ccc(O)cc4CC[C@H]3[C@@H]1CC[C@H]2O [17alpha-Estradiol] has a CC50 at 24 h (AC50 (uM) modified / 1000) of over 90 µM.
Work on C#C[C@]1(O)CC[C@H]2[C@@H]3CCc4cc(O)ccc4[C@H]3CC[C@@]21C [17alpha-Ethinylestradiol] yielded a CC50 at 24 h (AC50 (uM) modified / 1000) of over 90 µM.
In the case of C[C@]12CC[C@@H]3c4ccc(O)cc4CC[C@H]3[C@@H]1CC[C@@H]2O [17beta-Estradiol], the CC50 at 24 h (AC50 (uM) modified / 1000) is reported as over 90 µM.
In the case of C=C1CC[C@H](O)C/C1=C/C=C1\CCC[C@]2(C)[C@@H]([C@H](C)CC[C@@H](O)C(C)(C)O)CC[C@@H]12 [24R,25-Dihydroxyvitamin D3], the CC50 at 24 h (AC50 (uM) modified / 1000) is reported as 23.4 µM.
Molecule C[C@H](CCCC(C)(C)O)[C@H]1CC[C@H]2[C@@H]3CC=C4C[C@@H](O)CC[C@]4(C)[C@H]3CC[C@]12C [25-Hydroxycholesterol] has a CC50 at 24 h (AC50 (uM) modified / 1000) of over 50 µM.
Molecule CC(C)(C)CC(C)(C)c1ccccc1O [(1,1,3,3-Tetramethylbutyl)phenol (all isomers)] has a CC50 at 24 h (AC50 (uM) modified / 1000) of 31.1 µM.
In the case of CC(C)(C)NC(N)=O [(1,1-Dimethylethyl)urea], the CC50 at 24 h (AC50 (uM) modified / 1000) is reported as over 90 µM.
For O=C(c1ccccc1)C1(O)CCCCC1 [(1-Hydroxycyclohexyl)(phenyl)methanone], the CC50 at 24 h (AC50 (uM) modified / 1000) was over 90 µM.
CC1(C)[C@H]2CC[C@](C)(C2)[C@H]1O [(1R)-endo-(+)-Fenchyl alcohol] gave a CC50 at 24 h (AC50 (uM) modified / 1000) of over 90 µM.
In the case of CC(C)[C@H]1CC[C@H](C)C[C@@H]1O [(1S,2R,5S)-(+)-Menthol], the CC50 at 24 h (AC50 (uM) modified / 1000) is reported as over 90 µM.
With COc1ccc2c(c1OC)C(=O)O[C@H]2[C@@H]1c2cc3c(cc2CCN1C)OCO3 [(1S,9R)-beta-Hydrastine] the CC50 at 24 h (AC50 (uM) modified / 1000, Tox21_110001=Tox21_110815, viability, 1 nM T3 present, 24 h) was over 50 µM.
For COC(Cc1ccccc1)OC [(2,2-Dimethoxyethyl)benzene], the CC50 at 24 h (AC50 (uM) modified / 1000) was over 90 µM.
C=CC(=O)OCCn1c(=O)n(CCOC(=O)C=C)c(=O)n(CCOC(=O)C=C)c1=O [(2,4,6-Trioxo-1,3,5-triazinane-1,3,5-triyl)triethane-2,1-diyl trisprop-2-enoate] gave a CC50 at 24 h (AC50 (uM) modified / 1000) of 4.99 µM.
Molecule N#CCc1ccc(Cl)cc1Cl [(2,4-Dichlorophenyl)acetonitrile] has a CC50 at 24 h (AC50 (uM) modified / 1000) of over 90 µM.
For COc1ccc(C(=O)c2ccc(O)cc2)c(OC)c1 [(2,4-dimethoxyphenyl)(4-hydroxyphenyl)methanone], the CC50 at 24 h (AC50 (uM) modified / 1000) was over 90 µM.
C=C(C)C(=O)OCC[N+](C)(C)C [(2-(Methacryloyloxy)ethyl)trimethylammonium chloride] showed a CC50 at 24 h (AC50 (uM) modified / 1000) of 62.4 µM.
With Cc1ccccc1OCC(=O)O [(2-Methylphenoxy)acetic acid] the CC50 at 24 h (AC50 (uM) modified / 1000) was over 90 µM.
CC(=Cc1ccccc1)[N+](=O)[O-] [(2-Nitro-1-propenyl)benzene] showed a CC50 at 24 h (AC50 (uM) modified / 1000) of 10.3 µM.
Work on N#CCc1ccccc1[N+](=O)[O-] [(2-Nitrophenyl)acetonitrile] yielded a CC50 at 24 h (AC50 (uM) modified / 1000) of over 90 µM.
ClC/C=C/CCl [(2E)-1,4-Dichlorobut-2-ene] gave a CC50 at 24 h (AC50 (uM) modified / 1000) of over 90 µM.
For OC/C(Br)=C(\Br)CO [(2E)-2,3-Dibromo-2-butene-1,4-diol], the CC50 at 24 h (AC50 (uM) modified / 1000) was over 90 µM.
Molecule CCCCCCC/C=C/C=O [(2E)-2-Decenal] has a CC50 at 24 h (AC50 (uM) modified / 1000) of over 90 µM.
CCC/C=C/C=O [(2E)-2-Hexenal] showed a CC50 at 24 h (AC50 (uM) modified / 1000) of over 90 µM.
For CC(C)=CCC/C(C)=C/COC=O [(2E)-3,7-Dimethylocta-2,6-dien-1-yl formate], the CC50 at 24 h (AC50 (uM) modified / 1000) was over 90 µM.
With CCC(=O)OC/C=C/c1ccccc1 [(2E)-3-Phenylprop-2-en-1-yl propanoate] the CC50 at 24 h (AC50 (uM) modified / 1000) was over 90 µM.
For CCCCCC(O)/C=C/C=O (centres unmarked) [(2E)-4-Hydroxy-2-nonenal], the CC50 at 24 h (AC50 (uM) modified / 1000) was over 50 µM.
Work on C/C=C/C=C/C=O [(2E,4E)-2,4-Hexadienal] yielded a CC50 at 24 h (AC50 (uM) modified / 1000) of over 90 µM.
Molecule C/C=C/C=C/CO [(2E,4E)-Hexa-2,4-dien-1-ol] has a CC50 at 24 h (AC50 (uM) modified / 1000) of over 90 µM.
CC/C=C\CC/C=C/C(OCC)OCC [(2E,6Z)-1,1-diethoxynona-2,6-diene] gave a CC50 at 24 h (AC50 (uM) modified / 1000) of over 90 µM.
CC[C@@H](N)CO [(2R)-2-Aminobutan-1-ol] gave a CC50 at 24 h (AC50 (uM) modified / 1000) of over 100 µM.
